Assay results taken from PMC3208381 (European journal of medicinal chemistry, 2011).

Target: HCV NS5B polymerase (NS5BCΔ21) (Hepatitis C virus genotype 1b, UniProt P26663)
Test: NS5B inhibition assay
Format: biochemical
Conditions: for fold decrease in activity relative to thiophene parent compound 5a: NS5B IC50 compared with compound 5a; for fold more active than 15a: NS5B IC50 compared with compound 15a; for fold enhancement of inhibitory activity relative to 5-methyl analog 6a: NS5B IC50 compared with compound 6a

Which “fold decrease in activity relative to thiophene parent compound 5a” value does the source give for `O=C(O)/C(O)=C/C(=O)c1nccs1` [Compound 12a, 2-Hydroxy-4-(4-thiazole-2-yl)-4-oxobut-2-enoic acid] here?
Its value is ~ 1.8 fold.

`O=C(O)/C(O)=C/C(=O)c1ccccc1[N+](=O)[O-]` [Compound 16a, 2-Hydroxy-4-(2-nitrophenyl)-4-oxobut-2-enoic acid] was tested. Which “fold more active than 15a” value did it give?
Its value is ~ 2 fold.

For `Cc1ccsc1C(=O)/C=C(\O)C(=O)O` [Compound 11a, 2-Hydroxy-4-(3-methylthiophen-2-yl)-4-oxobut-2-enoic acid], which “fold enhancement of inhibitory activity relative to 5-methyl analog 6a” value is on record?
Its value is ~ 7 fold.

Which “fold improvement in inhibitory activity over compound 2a” value (NS5B IC50 compared with compound 2a) does the source give for `O=C(O)/C(O)=C/C(=O)c1cc2cc(Br)ccc2o1` [Compound 3a, 4-(5-Bromobenzofuran-2-yl)-2-hydroxy-4-oxobut-2-enoic acid] here?
Its value is ~ 3.5 fold.

With `O=C(O)/C(O)=C/C(=O)c1cccs1` [Compound 5a, 2-Hydroxy-4-(thiophen-2-yl)-4-oxobut-2-enoic acid] as the molecule, how does the “fold increase in inhibitory activity over compound 4a” value (NS5B IC50 compared with compound 4a) read?
The value was ~ 2.2 fold.

How did the “fold more active than 15a” value turn out when `O=C(O)/C(O)=C/C(=O)c1ccccc1F` [Compound 17a, 4-(2-Fluorophenyl)-2-hydroxy-4-oxobut-2-enoic acid] was run?
The value was ~ 2 fold.

With `Cc1csc(C(=O)/C=C(\O)C(=O)O)c1` [Compound 10a, 2-Hydroxy-4-(4-methylthiophen-2-yl)-4-oxobut-2-enoic acid] as the molecule, how does the “fold enhancement of inhibitory activity relative to 5-methyl analog 6a” value read?
The value was ~ 2 fold.

For `O=C(O)/C(O)=C/C(=O)c1ccc(Br)s1` [Compound 8a, 4-(5-Bromothiophen-2-yl)-2-hydroxy-4-oxobut-2-enoic acid], which “fold enhancement of inhibitory activity relative to 5-methyl analog 6a” value is on record?
The value was ~ 2 fold.

Which “fold enhancement of inhibitory activity relative to 5-methyl analog 6a” value does the source give for `O=C(O)/C(O)=C/C(=O)c1ccc(Cl)s1` [Compound 7a, 2-Hydroxy-4-(5-chlorothiophene-2-yl)-4-oxobut-2-enoic acid] here?
Its value is ~ 2 fold.

With `Cc1ccc(C(=O)/C=C(\O)C(=O)O)s1` [Compound 6a, 2-Hydroxy-4-(5-methylthiophen-2-yl)-4-oxobut-2-enoic acid] as the molecule, how does the “fold decrease in activity relative to thiophene parent compound 5a” value read?
The value was “approximately 3 fold”.
